The source of these data is ChEMBL document CHEMBL1148908, “Biscoumarin derivatives from Edgeworthia gardneri that inhibit the lyase activity of DNA polymerase beta” (J Nat Prod, 2004).

Activity calls are given as the source filed them. No cut-off for these calls is given here.

Test [1] deals with A549. Description: Cytotoxicity against human A549 cells at 6 uM after 48 hrs. It counts as functional. The settings on record: A549, 48 h.
The subject of test [2] is A549. Description: Cytotoxicity against human A549 cells at 6 uM after 48 hrs in presence of 0.5 uM blenoxane. It is filed as functional.
The target of test [3] is DNA polymerase beta (Rattus norvegicus) (UniProt P06766). Description: Inhibition of rat DNA polymerase beta-mediated DNA polymerization up to 100 ug/mL after 1 hr.
In test [4] the test system is A549. Description: Cytotoxicity against human A549 cells at 0.5 uM after 48 hrs. It is filed as functional, cell-based.
Another test addresses DNA polymerase beta (Rattus norvegicus, UniProt P06766). Description: Inhibition of lyase activity of rat DNA polymerase beta after 30 mins.

A word on the inhibition: it is the percentage by which the read-out fell short of the control. In the test on A549 [1], `O=c1ccc2ccc(Oc3cc4ccc(O)cc4oc3=O)cc2o1` [EDGEWORIN] displayed an inhibition at 6 µM of 1.6%. Also, in the test on A549 [2], the “inhibition (INH)” value is listed as 50.7%. Besides, in test [3], the outcome was inactive.

In the test on A549 [4], BLEOMYCIN SULFATE displayed an inhibition of 35.5%.

By IC50 is commonly meant the concentration that inhibits the measured activity by half. Higher therefore signals lower potency. As to `COc1cc2cc(Oc3ccc4ccc(=O)oc4c3)c(=O)oc2cc1O` [DAPHNORETIN], the IC50 at DNA polymerase beta amounted to 122 µM. Also, the result in test [3] was inactive.

For `O=c1ccc2ccc(Oc3cc4cc(O)c(O)cc4oc3=O)cc2o1` [EDGEWORTHIN], at DNA polymerase beta, the IC50 came to 94.8 µM. Also, in test [3], the result was inactive.
